Reference: patent publication US20230414596A1 (PRILENIA NEUROTHERAPEUTICS LTD., priority 2020, published 2023)
Values joined by “and” are separate entries in the source; they are usually repeats but may differ in a detail not shown here. Equal entries are not always repeated. Where two headings read alike, the source gives them in different places.

Assays:
Sigma-2 receptor (S2R) = Sigma-2 receptor (S2R) (Homo sapiens (Human), UniProt Q5BJF2); assay: Sigma-2 receptor in-vitro binding assay
[1] = tested on: B104 rat neuroblastoma cells; assay: BDNF release in-situ ELISA in B104 neuroblastoma cells; format: cell-based; details: 5 days
Description: […]. Compound 4 alone had no effect on BDNF secretion—(1.5%). […]. Compound 4 alone had no effect on BDNF secretion (−1.5%). […].

[2] = tested on: female MeCP2 heterozygous (Rett) mice; details: 30 mg/kg bid orally, 8 weeks of age
Description: Clasping is used to assess muscular strength in limb muscles. Hindlimb clasping is measured in mice held by the tail and gently lifted until the front paws just lift off the counter surface. The experimenter observes the legs and determines clasping or splaying of limbs. […] Data are mean±SEM, N-1 two-proportional tests.
(§1) Dosing commenced when mice were ˜5.5 weeks of age and continued through the end of behavioral testing. Behavioral testing was done at 8 and 12 weeks of age.
Mice were held by the tail and gently lifted until the front paws just lift off the counter surface. The experimenter observed the legs and determined clasping or splaying of limbs. After testing, animals were placed back into the test or home cage. Percent clasping of the hindlimbs was determined and reported.

[3] = tested on: female MeCP2 heterozygous (Rett) mice; details: 3 mg/kg bid
Description: as §1
Mice were placed in the PPI chambers (Med Associates) for a 5 min session of white noise (70 dB) habituation.
The inter-trial interval was variable with an average of 15 s (range from 10 to 20 s).

[4] = tested on: female MeCP2 heterozygous (Rett) mice; details: for Recovery of overall gait features: female Rett mice, 30 mg/kg bid
Description: FIG. 1: Feature recovery as a measure of the therapeutic drug effect on Mecp2-KO Rett Syndrome model mice. This figure is intended to provide an explanation as to how the data is analyzed in FIGS. 4, 5 and 12.
Left: “the cloud graph”: Visualization of the control−disease−(disease+treatment) groups relationship in the optimal discrimination feature space.
The drug treatment effect can be represented as a combination of two components: one along the direction of the “recovery line” (the line connecting the centers of the control (WT) and disease (MECP2-KO) clouds, shown as a thick arrow to the left with diagonal lines on top), and the component orthogonal to (“pointing away” from) that direction shown as an arrow pointing up with parallel lines within. The relative length of the “recovery” arrow with respect to the control-disease distance can then be interpreted as the “recovery due to the drug”, whereas the relative length of the “other effect” (orthogonal with parallel lines inside) arrow represents feature changes that move the disease mice+treatment group away from the control group. The summary of this analysis can be effectively represented as a bar graph (right pane in FIG. 1A) which is typically referred to as the recovery signature.
Right: “the recovery signature” graph: The bar graph represents the summary of the recovery analysis. The overlap and discrimination probability sum up to 100%. The recovery ranges from […]. The lower the overlap, the better the quality of the disease model, and the higher the discrimination power between the WT and Rett mice groups. The “other behavioral effect” is in the same relative units (relative to the length of the distance between the WT and Rett mice groups).
The NeuroCube® system is a platform that employs computer vision to detect changes in gait geometry and gait dynamics in rodent models of neurological disorders, pain & neuropathies. This platform is unique for gait testing for the following reasons: • It is completely automated and thus removes any bias or subjectivity • This system captures both gait geometry and gait dynamics (stance, swing, propulsion, etc.)
Mice were placed in the NeuroCube for a 5 min test. The most dominant of the features collected that define the disease phenotype (symptom descriptors) was identified and ranked. Complex bioinformatic algorithms were employed to calculate the discrimination probability between the WT and the Rett HET MeCP2 mice and detect a test compound's ability to reverse the disease phenotype. Discriminations between mutant and wild type was calculated as well as the recovery of disease features in Rett HET MeCP2 mice treated with the test compound.
The output of NeuroCube is a set of dozens of behavioral features that are submitted for analysis with machine learning techniques used in bioinformatics. Many of these features are correlated (e.g. rearing counts and supported rearing counts). Therefore, PGI forms statistically independent combinations of the original features (further referred to as de-correlated features) that discriminate between the two groups more effectively.
Each de-correlated feature extracts information from the whole cluster of the original features, so the new feature space has lower dimensionality. Next, PGI applies a proprietary feature ranking algorithm to score each feature's discrimination power (ability to separate the two groups, e.g. control and disease).
Ranking is an important part of the analyses because it weighs each feature change by its relevance: if there is a significant change in some irrelevant feature measured for a particular phenotype, the low rank of this feature will automatically reduce the effect of such change in the analyses, so there is no need to resort to the conventional “feature selection” approach and discard information buried in the less informative features.

[5] = tested on: BDNF transcripts (BDNF I, IV, VI, IX) mRNA; details: whole brain, Rett mice
Description: FIGS. 6A-6C, 7, 8, 9, 10: These figures display mRNA levels of BDNF transcripts measured in the brains of female heterozygous MeCP2 (Rett) mice. […] The relative quantity of the gene target is normalized to the geometric means of the relative quantity of the housekeeping genes APT5B, GAPDH and RPK12A. Relative level of the target gene was then normalized to the WT vehicle group. All data are represented as the mean±SEM. ANOVA followed by Tukey's multiple comparisons test.
Mice were euthanized via cervical dislocation and decapitated. From 10 mice/treatment group, whole brains were collected, weighed, and then frozen on dry ice. Samples were stored at −80° C. until analysis of brain-derived neurotrophic factor (BDNF).
Tissues (whole brain) were homogenized, and RNA extracted and quantified. An aliquote was reverse-transcribed into cDNA.
Up to three independent RT reactions were performed for each RNA sample. qPCR was performed using the primers detailed in Table 5 below.
Whole brain cDNA prepared from a pooled sample of WT vehicle treated animals was used as calibrator (calibrator is diluted same as sample cDNA) to normalized plate-to-plate variations. Each cDNA sample (diluted 1:10) was assayed in triplicates and the Ct values averaged.
Relative quantity of the PCR product (relative to the calibrator) was calculated as follows:
Relative Quantity of Target gene=(PCR EfficiencyTarget)^(Ct caltbrator-Ctsample)
Geometric mean=(relative quantity of housekeeping gene1*relative quantity of housekeeping gene2*relative quantity of housekeeping gene3)^(1/3)
Relative Quantity of Target gene Geometric mean of housekeeping genes
Relative level of target gene was then normalized to the WT vehicle group.

[6] = tested on: B6.129P2-Mecp2tm2Bird/J (Rett-KO) male mice; details: 30 mg/kg bid
Description: The room temperature was maintained between 20 and 23° C. with a relative humidity maintained around 50%. Chow and water were provided ad libitum for the duration of the study.

[7] = tested on: Rett disease gene expression signature
early HD patients = details: 45 mg bid
Description: Change from baseline in UHDRS TMS gait balances week 26 (A) and Week 52(B) in early HD (baseline TFC 7-13) patients in the PRIDE-HD study.
Change from baseline in UHDRS TMS gait and balances scale at weeks 26 and 52 in early HD (baseline TFC 7-13).

[8] = tested on: B104 rat neuroblastoma cells; details: in-situ ELISA, Geva et al. 2016; cited from earlier work
[9] = tested on: cultured cortical neurons from the HD YAC128 mouse model; details: Smith-Dijak et al., 2019; cited from earlier work

Chain of Sigma-2 receptor (S2R) (Q5BJF2 whole entry, species assumed): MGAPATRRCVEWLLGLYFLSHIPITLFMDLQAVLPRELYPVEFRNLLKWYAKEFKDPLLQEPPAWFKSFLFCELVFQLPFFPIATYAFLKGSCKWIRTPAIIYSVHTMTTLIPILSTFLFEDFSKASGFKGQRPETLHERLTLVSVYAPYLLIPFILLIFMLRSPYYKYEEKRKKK

For `CCCN1CCC(O)(c2cccc(S(C)(=O)=O)c2)CC1` [Compound 1], which “S1R fold selectivity (S2R/S1R)” value (Sigma-2 receptor (S2R)) is on record?
Its value is >270 fold.

What about the “Increase in BDNF release vs untreated control” value (shortened to “Increase in BDNF release”) ([1]; Compound 1 alone 1 μM) of the same compound?
Its value is 12.5%.

With `CCCN1CC[C@@H](c2cccc(S(C)(=O)=O)c2)[C@@H](O)C1` [Compound 4] as the compound, how does the “S1R fold selectivity (S2R/S1R)” value (Sigma-2 receptor (S2R)) read?
Its value is >35 fold.

For `CCCN1CCC(c2cccc(S(C)(=O)=O)c2)CC1` [Pridopidine, 4-[3-(methylsulfonyl)phenyl]-1-propyl-piperidine], which “Percent clasping of the hindlimbs” value [2] is on record?
The value was “zero”.

What about the “Percent clasping of the hindlimbs” value ([2]; listed as pridopidine) of the same compound?
The value was 0%.

What about the “Rescue effect on mean startle response” value ([3]; 8 weeks of age) of the same compound?
The value was ~40%.

And the “Rescue effect on mean startle response” value ([3]; 12 weeks of age)?
Its value is ~50%.

And the “% Recovery 3 mg/kg BID, Body Motion” value ([4]; 8 weeks, 3 mg/kg BID)?
The value was 81%,.

And the “% Recovery 3 mg/kg BID, Gait” value ([4]; 8 weeks, 3 mg/kg BID)?
The value was 38%,.

What about the “% Recovery 30 mg/kg BID, Body Motion” value ([4]; 8 weeks, 30 mg/kg BID) of the same compound?
The value was 84%,.

And the “% Recovery 30 mg/kg BID, Gait” value ([4]; 8 weeks, 30 mg/kg BID)?
Its value is 71%,.

And the “% Recovery 3 mg/kg BID, Body Motion” value ([4]; 12 weeks, 3 mg/kg BID)?
The value was 65%,.

What about the “% Recovery 3 mg/kg BID, Gait” value ([4]; 12 weeks, 3 mg/kg BID) of the same compound?
Its value is 60%,.

What about the “% Recovery 3 mg/kg BID, Paw Positioning” value ([4]; 12 weeks, 3 mg/kg BID) of the same compound?
The value was 35%,.

And the “% Recovery 30 mg/kg BID, Body Motion” value ([4]; 12 weeks, 30 mg/kg BID)?
Its value is 59%,.

And the “% Recovery 30 mg/kg BID, Gait” value ([4]; 12 weeks, 30 mg/kg BID)?
Its value is 100%,.

What about the “% Recovery 30 mg/kg BID, Paw Positioning” value ([4]; 12 weeks, 30 mg/kg BID) of the same compound?
Its value is 52%,.

What about the “Recovery of overall gait features” value ([4]; 8 weeks of age) of the same compound?
The value was 45%.

And the “Recovery of overall gait features” value ([4]; 12 weeks of age)?
Its value is 55%.

And the “Increase of BDNF IV mRNA levels” value ([5]; 3 mg/kg bid and 30 mg/kg bid)?
The value was ~30%.

What about the “Effect on mRNA expression of housekeeping genes ATP5B, GAPDH, RPL13A” value ([5]; 3 and 30 mg/kg bid) of the same compound?
The value was “does not affect”.

What about the “Effect on BDNF I mRNA levels” value ([5]; 3 or 30 mg/kg bid) of the same compound?
Its value is “does not affect”.

What about the “Effect on BDNF VI mRNA levels” value ([5]; 3 or 30 mg/kg bid) of the same compound?
The value was “does not affect”.

What about the “Recovery of gait deficits” value ([6]; 6 weeks of age) of the same compound?
Its value is 44%.

What about the “Recovery of gait deficits” value ([6]; 7 weeks of age) of the same compound?
Its value is 100%.

What about the “Increase in BDNF release” value ([1]; pridopidine alone 0.001 μM) of the same compound?
The value was 13.6% and 13.5%.

And the “Increase in BDNF release” value ([1]; pridopidine alone 0.005 μM)?
The value was 26%.

And the “Increase in BDNF release” value ([1]; pridopidine alone 0.01 μM ([…] in FIG. 17 legend))?
The value was 3.4%.

And the “NES (normalized enrichment score), genes downstream to BDNF” value ([7]; 30 mg/kg BID, BDNF-TrkB pathway genes)?
The value was 1.752.

And the “NES (normalized enrichment score)” value ([7]; cortex, 3 mg/kg BID, geneset Prido Down / Rett Up)?
Its value is 1.356.

And the “NES (normalized enrichment score)” value ([7]; cortex, 3 mg/kg BID, geneset Prido Up / Rett Down)?
Its value is 1.477.

What about the “NES (normalized enrichment score)” value ([7]; cortex, 30 mg/kg BID, geneset Prido Down / Rett Up) of the same compound?
Its value is 2.081.

What about the “NES (normalized enrichment score)” value ([7]; cortex, 30 mg/kg BID, geneset Prido Up / Rett Down) of the same compound?
Its value is −2.631.

And the “Reversal of Rett gene expression pattern” value ([7]; striatum and cortex of Rett mice, GSEA)?
The value was “strongly reverses”.

What about the “NES (normalized enrichment score)” value ([7]; striatum, 3 mg/kg BID, geneset Down with Prido / Up in Rett) of the same compound?
Its value is 2.18.

And the “NES (normalized enrichment score)” value ([7]; striatum, 3 mg/kg BID, geneset Up with Prido / Down in Rett)?
The value was −2.50.

What about the “NES (normalized enrichment score)” value ([7]; striatum, 30 mg/kg BID, geneset Up with Prido / Down in Rett) of the same compound?
Its value is −1.77.

And the “UHDRS TMS gait and balance, Δ from placebo” value (from here on “UHDRS TMS gait and balance, Δ”) (early HD patients; HD1 (TFC 11-13), Week 26)?
The value was −0.31.

And the “UHDRS TMS gait and balance, Δ” value (early HD patients; HD1 (TFC 11-13), Week 52)?
The value was −0.94.

What about the “UHDRS TMS gait and balance, Δ” value (early HD patients; HD2 (TFC 7-10), Week 26) of the same compound?
The value was −0.53.

And the “UHDRS TMS gait and balance, Δ” value (early HD patients; HD2 (TFC 7-10), Week 52)?
The value was −0.18.

And the “UHDRS TMS gait and balance, Δ” value (early HD patients; early HD (TFC 7-13), Week 26)?
Its value is −0.48.

What about the “UHDRS TMS gait and balance, Δ” value (early HD patients; early HD (TFC 7-13), Week 52) of the same compound?
The value was −0.41.

And the “BDNF secretion in rat neuroblastoma cells” value [8]?
The value was “dose dependent increase”.

And the “Impaired homeostatic synaptic plasticity (HSP)” value [9]?
Its value is “restores impaired HSP”.
